Measured values published in US20260224549A1, “COMPOUNDS, COMPOSITIONS, AND METHODS FOR TREATING, AMELIORATING, AND/OR PREVENTING PAIN” (priority 2023, published 2026).

Experiments:
[1] = Hygroscopicity - Dynamic Vapor Sorption (DVS); assay type: physicochemical
Protocol: Hygroscopicity—Dynamic Vapor Sorption (DVS)
DVS is a gravimetric technique that measures how quickly and how much of a solvent (water) is sorbed by a sample. The relative humidity or vapor concentration surrounding the sample is varied while the change in mass of the sample is measured. […] The mass values at each relative humidity step are used to generate an isotherm. Isotherms are divided in two components: sorption for increasing humidity steps and desorption for decreasing humidity steps. A plot of kinetic data is also used to show the change in mass and humidity as a function of time.
The samples were analyzed using a TA Q5000 automated dynamic vapor sorption analyzer. The samples were dried at 60° C. over 180 minutes and then cooled to 25° C. with a dry nitrogen purge. The samples were then subjected to 0 to 90% RH, back to 10% RH at 25° C. in 10% RH steps.

[2] = target: μ-opioid receptor (Rattus norvegicus, UniProt P33535)
Sequence of μ-opioid receptor (P33535 whole entry): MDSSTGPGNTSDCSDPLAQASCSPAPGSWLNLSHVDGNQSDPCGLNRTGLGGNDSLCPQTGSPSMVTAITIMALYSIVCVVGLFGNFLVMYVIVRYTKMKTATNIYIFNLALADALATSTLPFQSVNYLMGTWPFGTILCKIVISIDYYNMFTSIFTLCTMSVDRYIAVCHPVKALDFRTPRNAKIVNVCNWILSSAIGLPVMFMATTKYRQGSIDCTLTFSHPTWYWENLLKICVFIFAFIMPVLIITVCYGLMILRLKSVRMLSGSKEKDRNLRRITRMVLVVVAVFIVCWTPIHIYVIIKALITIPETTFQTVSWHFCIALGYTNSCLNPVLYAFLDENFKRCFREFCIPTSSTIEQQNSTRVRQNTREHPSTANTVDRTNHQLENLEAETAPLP

[3] = tested on: human μ-opioid receptor; conditions: G-protein signaling over β-arrestin signaling
From the text: Applying ^19F NMR, one can measure the quantity of G-protein signaling conformation, as well as that of β-arrestin signaling conformation, of the μ-opioid receptor as induced by an agonist.

[4] = clinical; conditions: for AUC(0-t) / Cmax / Tmax: human
Protocol: The reference treatment i fasted condition for all comparisons.
Eight subjects in Cohort A3 participated in a 2-period treatment design in which they were assessed for the single-dose of drug substance in a Fasted condition and in a Fed condition. Subjects were to receive the same treatment (i.e., either drug substance or placebo) in both Period 1 and Period 2, and thus subjects would receive either two single doses of drug substance or two single doses of placebo during their participation in the study. Fasting state assessments occurred in Period 1 and Fed State assessments in Period 2. It was planned that an approximate 7-day washout would be needed between the Fast and Fed dosing periods. Note that PD assessments were not performed for the food effect Cohort A3.
Note that PD assessments were not performed for the Food Effect cohort.
For Part A Cohort A3, assessment of the food-effect was performed for the following PK parameters: • AUC0-last • Cmax • AUC0-inf

[5] = clinical; conditions: for CL/F (apparent clearance), Mean / Tlast (time of last measurable concentration), Median / Tlast, Max / Tlast, Min / Tmax, Min / Tmax, Max / AUC(0-t): single oral dose, N = 6; for CL/F (apparent clearance), Mean / Tlast (time of last measurable concentration), Median / Tlast, Max / Tlast, Min / Tmax, Min / Tmax, Max / Tmax / half-life / Vd/F / AUC(0-inf) / Cmax / AUC(0-t): plasma; for Tmax / half-life / Vd/F / AUC(0-inf) / Cmax / AUC(0-t): human; for AUC(0-t): Mean
From the text: The study comprised a single ascending dose (SAD), sequential cohort study, incorporating a food effect (FE) evaluation. Up to 40 subjects were to be studied in 5 cohorts (Cohorts A1 to A5), each cohort consisting of 8 subjects.
Subjects in Cohort A3 participated in 2 treatment periods (once in Fed state, once in Fasted state) separated by a minimum of 6 days. All subjects were to return for a poststudy on Day 5 (+2 days) after their final dose for a final safety assessment.
All doses for Cohorts A1, A2, A4, and A5 were administered in the fasted state in the moming of Day 1.
The actual blood sampling dates and times relative to dosing time were listed by subject and nominal sampling time, with time deviation calculated, for all subjects with available plasma concentration data.
For PK concentration data, the number of non-missing values, number of below limit of quantification (BLQ) values, arithmetic mean, standard deviation, median, minimum, maximum, coefficient of variation (CV %), geometric mean and geometric coefficient of variation (geo CV %) values was presented.
For PK parameter data, the number of non-missing values, arithmetic mean, standard deviation, median, minimum, and maximum values were presented.

[6] = 120 mg DS (Fed), single oral dose, plasma, N = 6
[7] = 120 mg DS, Fed versus Fasted, n = 6

For `CN(C)C[C@H]1CN(CCc2ccsc2)CC[C@]1(O)c1cccc(C(N)=O)c1` [Compound I, 3-(3S, 4R)-3-((dimethylamino)methyl)-4-hydroxy-1-(2-(thiophen-3-yl)ethyl)piperidin-4-yl-benzamide], the maximum moisture uptake [1] was “approximately 10.5 wt %”, the hygroscopicity ([1]; in words, listed as Compound I free base) was “hygroscopic” and the “mediation of antinociceptive effect” value ([2]; in vivo) was “mediated exclusively by μ-opioid receptor”. The “pain relief in preclinical models” value ([2]; preclinical models) was “comparable to Schedule 2 opiates”, the signaling pathway selectivity [3] was “extremely cell-signaling-pathway-selective μ-opioid agonist” and the “GLSM ratio (90% CI) fed/fasted, AUC0-last” value ([4]; 120 mg) was 0.801 (0.688, 0.933). The “GLSM ratio (90% CI) fed/fasted, Cmax” value ([4]; 120 mg) was 0.450 (0.238, 0.852), the “reduction of AUC0-last by food” value ([4]; 120 mg) was “approximately 20%” and the “reduction of peak concentrations by food” value ([4]; 120 mg) was “approximately 55%”. The “Tlast (time of last measurable concentration), Median” value (“Tlast … Median” for short) [4, 6] was 48.0 h, the “Tlast, Max” value [4, 6] was 48.0 h and the “Tlast, Min” value [4, 6] was 36.0 h. The “Tmax, Max” value [4, 6] was 6.02 h, the “Tmax, Min” value [4, 6] was 1.00 h and the “AUC0-last, Fed versus Fasted Ratio of GLSMs” value [4, 7] was 0.801. For the same compound, the “Cmax, Fed versus Fasted Ratio of GLSMs” value [4, 7] was 0.450, the “mean concentrations measurable through” value ([4]; 120 mg fed) was 48 h and the AUC(0-t) ([4]; plasma, oral, 120 mg, AUC0-last (zero to 24 hours postdose), GLSM, 120 mg DS (Fasted), n = 6) was 202 ng·h/mL. The AUC(0-t) ([4]; plasma, oral, 120 mg, AUC0-last (zero to 24 hours postdose), GLSM, 120 mg DS (Fed), n = 6) was 162 ng·h/mL, the Cmax ([4]; plasma, oral, 120 mg, GLSM (geometric least squares mean), 120 mg DS (Fasted), n = 6) was 81.9 ng/mL and the Cmax ([4]; plasma, oral, 120 mg, GLSM (geometric least squares mean), 120 mg DS (Fed), n = 6) was 36.9 ng/mL. The Tmax ([4]; plasma, oral, 120 mg, individual Tmax range, with food) was 1 to 6 h, the Tmax ([4]; plasma, oral, 120 mg, individual Tmax range, without food) was 2 to 3 h and the Tmax ([4]; plasma, oral, 120 mg, median Tmax, with food) was 2.6 h. For the same compound, the Tmax ([4]; plasma, oral, 120 mg, median Tmax, without food) was 2.3 h, the AUC(0-t) ([4]; plasma, po, 120 mg, AUC0-last (zero to 24 hours postdose), Mean, 120 mg DS (Fed), single oral dose, N = 6) was 166 ng·h/mL and the AUC(0-t) ([4]; plasma, po, 120 mg, AUC0-t (zero to the last quantifiable concentration), Mean, 120 mg DS (Fed), single oral dose, N = 6) was 204 ng·h/mL. For the same compound, the Cmax ([4]; plasma, po, 120 mg, Mean, 120 mg DS (Fed), single oral dose, N = 6) was 45.2 ng/mL, the Tmax ([4]; plasma, po, 120 mg, Tmax, Median, 120 mg DS (Fed), single oral dose, N = 6) was 2.58 h and the “CL/F (apparent clearance), Mean” value ([5]; 20 mg DS (Fasted)) was 1130 L/h. The “Tlast … Median” value ([5]; 20 mg DS (Fasted)) was 4.00 h, the “Tlast, Max” value ([5]; 20 mg DS (Fasted)) was 4.03 h and the “Tlast, Min” value ([5]; 20 mg DS (Fasted)) was 3.50 h. The “Tmax, Min” value ([5]; 20 mg DS (Fasted)) was 0.500 h, the CL/F ([5]; 20 mg fasted) was 1130 L/h and the “mean concentrations measurable through” value ([5]; 20 mg fasted) was 3.5 h. For the same compound, the “CL/F (apparent clearance), Mean” value ([5]; 60 mg DS (Fasted)) was 937 L/h, the “Tlast … Median” value ([5]; 60 mg DS (Fasted)) was 12.0 h and the “Tlast, Max” value ([5]; 60 mg DS (Fasted)) was 24.0 h. For the same compound, the “Tlast, Min” value ([5]; 60 mg DS (Fasted)) was 6.00 h, the “Tmax, Max” value ([5]; 60 mg DS (Fasted)) was 3.02 h and the CL/F ([5]; 60 mg fasted) was 937 L/h. The “mean concentrations measurable through” value ([5]; 60 mg fasted) was 8 h, the “CL/F (apparent clearance), Mean” value ([5]; 120 mg DS (Fasted)) was 541 L/h and the “Tlast … Median” value ([5]; 120 mg DS (Fasted)) was 36.0 h. For the same compound, the “Tlast, Max” value ([5]; 120 mg DS (Fasted)) was 48.0 h, the “Tlast, Min” value ([5]; 120 mg DS (Fasted)) was 16.0 h and the “Tmax, Max” value ([5]; 120 mg DS (Fasted)) was 3.00 h. The “mean concentrations measurable through” value ([5]; 120 mg fasted) was 36 h, the “CL/F (apparent clearance), Mean” value ([5]; 200 mg DS (Fasted)) was 452 L/h and the “Tlast … Median” value ([5]; 200 mg DS (Fasted)) was 48.0 h. The “Tlast, Max” value ([5]; 200 mg DS (Fasted)) was 48.1 h, the “Tlast, Min” value ([5]; 200 mg DS (Fasted)) was 36.0 h and the “Tmax, Max” value ([5]; 200 mg DS (Fasted)) was 2.02 h. The “Tmax, Min” value ([5]; 200 mg DS (Fasted)) was 1.00 h, the “mean concentrations measurable through” value ([5]; 200 mg fasted) was 36 h and the “CL/F (apparent clearance), Mean” value ([5]; 400 mg DS (Fasted)) was 500 L/h. The “Tlast … Median” value ([5]; 400 mg DS (Fasted)) was 48.0 h, the “Tlast, Max” value ([5]; 400 mg DS (Fasted)) was 48.0 h and the “Tlast, Min” value ([5]; 400 mg DS (Fasted)) was 48.0 h. For the same compound, the “Tmax, Max” value ([5]; 400 mg DS (Fasted)) was 2.02 h, the “Tmax, Min” value ([5]; 400 mg DS (Fasted)) was 1.00 h and the “mean concentrations measurable through” value ([5]; 400 mg fasted) was 48 h. For the same compound, the Tmax ([5]; oral) was 1.5 to 2.5 h, the half-life ([5]; oral) was 29.4 to 31.4 h and the Vd/F ([5]; oral, 20 mg) was 1380 L. It also gave a half-life ([5]; oral, 20 mg) of 1.05 h, a Vd/F ([5]; oral, 60 mg) of 6790 L and a half-life ([5]; oral, 60 mg) of 7.89 h. The Vd/F ([5]; oral, 120 mg) was 12300 L, the Vd/F ([5]; oral, 200 mg) was 18100 L and the Vd/F ([5]; oral, 400 mg) was 20400 L. It also gave an AUC(0-inf) ([5]; po, 20 mg) of 18.4 ng·h/mL, a Cmax ([5]; po, 20 mg) of 9.69 ng/mL and a Tmax ([5]; po, 20 mg) of 2.5 h. For the same compound, the Vd/F ([5]; po, 20 mg) was 1380 L, the half-life ([5]; po, 20 mg) was 1.05 h and the AUC(0-t) ([5]; po, 20 mg, AUC0-last (zero to 24 hours postdose), 20 mg DS (Fasted)) was 16.5 ng·h/mL. It also gave an AUC(0-t) ([5]; po, 20 mg, AUC0-t (zero to the last quantifiable concentration), 20 mg DS (Fasted)) of 13.9 ng·h/mL, an AUC(0-inf) ([5]; po, 60 mg) of 79.8 ng·h/mL and a Cmax ([5]; po, 60 mg) of 51.7 ng/mL. For the same compound, the Tmax ([5]; po, 60 mg) was 2.25 h, the Vd/F ([5]; po, 60 mg) was 6790 L and the half-life ([5]; po, 60 mg) was 7.89 h. The AUC(0-t) ([5]; po, 60 mg, AUC0-last (zero to 24 hours postdose), 60 mg DS (Fasted)) was 71.6 ng·h/mL, the AUC(0-t) ([5]; po, 60 mg, AUC0-t (zero to the last quantifiable concentration), 60 mg DS (Fasted)) was 67.1 ng·h/mL and the AUC(0-inf) ([5]; po, 120 mg) was 245 ng·h/mL. The Cmax ([5]; po, 120 mg) was 98.5 ng/mL, the Tmax ([5]; po, 120 mg) was 2.28 h and the Vd/F ([5]; po, 120 mg) was 12300 L. It also gave a half-life ([5]; po, 120 mg) of 31.4 h, an AUC(0-t) ([5]; po, 120 mg, AUC0-last (zero to 24 hours postdose), 120 mg DS (Fasted)) of 211 ng·h/mL and an AUC(0-t) ([5]; po, 120 mg, AUC0-t (zero to the last quantifiable concentration), 120 mg DS (Fasted)) of 231 ng·h/mL. It also gave an AUC(0-inf) ([5]; po, 200 mg) of 446 ng·h/mL, a Cmax ([5]; po, 200 mg) of 220 ng/mL and a Tmax ([5]; po, 200 mg) of 2 h. The Vd/F ([5]; po, 200 mg) was 18100 L, the half-life ([5]; po, 200 mg) was 29.4 h and the AUC(0-t) ([5]; po, 200 mg, AUC0-last (zero to 24 hours postdose), 200 mg DS (Fasted)) was 346 ng·h/mL. For the same compound, the AUC(0-t) ([5]; po, 200 mg, AUC0-t (zero to the last quantifiable concentration), 200 mg DS (Fasted)) was 381 ng·h/mL, the AUC(0-inf) ([5]; po, 400 mg) was 832 ng·h/mL and the Cmax ([5]; po, 400 mg) was 318 ng/mL. It also gave a Tmax ([5]; po, 400 mg) of 1.5 h, a Vd/F ([5]; po, 400 mg) of 20400 L and a half-life ([5]; po, 400 mg) of 32.1 h. For the same compound, the AUC(0-t) ([5]; po, 400 mg, AUC0-last (zero to 24 hours postdose), 400 mg DS (Fasted)) was 698 ng·h/mL and the AUC(0-t) ([5]; po, 400 mg, AUC0-t (zero to the last quantifiable concentration), 400 mg DS (Fasted)) was 794 ng·h/mL.
